Laboratory results published in EP0761667A1, “Heterocyclic substituted pseudopeptides” (BAYER AG, priority 1995, dated 1997).
Read-outs that look alike come from different tables or passages of the source.

Assays:
HIV-1-Protease = biological target: T1, HIV-1-Protease (Human immunodeficiency virus type 1 group M subtype B, UniProt P04585); assay: HIV-specific protease enzyme test (purified HIV protease, synthetic peptide substrate, RP-HPLC analysis of cleavage products); format: biochemical
T1 construct: Gereinigte HIV-Protease wurde mit synthetischem Peptid
From the text: Es wurde überraschend gefunden, daß die Verbindungen der allgemeinen Formel (I) eine außerordentlich starke Wirkung gegen Retroviren besitzen. Dies wird mit einem HIV-spezifischen Protease-Enzymtest belegt.
Die Ergebnisse der unten aufgeführten Beispiele wurden nach dem in der folgenden Literaturangabe [vgl. Hansen, J., Billich, S., Schulze, T., Sukrow, S. and Mölling, K. (1988), EMBO Journal, Vol, 7, No. 6, pp. 1785 - 1791] beschriebenen HIV-Testsystem ermittelt: Gereinigte HIV-Protease wurde mit synthetischem Peptid, das eine Schnittstelle im Gag-Precursor-Protein imitiert und eine in vivo-Spaltstelle der HIV-Protease darstellt, inkubiert. Die entstandenen Spaltprodukte des synthetischen Peptids wurden über Reverse Phase High Performance Liquid Chromatography (RP-HPLC) analysiert. […]

HIV = HIV infection in cell culture (PBL), microscopic evaluation of syncytia formation; format: cell-based; settings: HIV-infected normal human blood lymphocytes (PBL's), day 3 to 6 after infection; for PBL IC95: suppression of virus-induced syncytia; for IC50: Human immunodeficiency virus 1, Lymphocyte, 72 h, 50% suppression of virus-induced syncytia
Procedure: HIV-Infektion in Zellkultur
Der HIV-Test wurde mit geringen Modifikationen nach der Methode von Pauwels et al. [vgl. Journal of Virological Methods 20, (1988), 309-321] durchgeführt.
Normale menschliche Blutlymphozyten (PBL's) wurden über Ficoll-Hypaque angereichert und im RPMI 1640, 20% fötales Kälberserum mit Phytohaemagglutinin (90 µg/ml) und Interleukin-2 (40 U/ml) stimuliert. Zur Infektion mit dem infektiösen HIV wurden PBL's pelletiert und das Zellpellet wurde anschließend in 1 ml HIV-Virusadsorptionslösung suspendiert und 1 Stunde bei 37°C inkubiert.
Die Virusadsorptionslösung wurde zentrifugiert und das infizierte Zellpellet in Wachstumsmedium aufgenommen, so daß 1 x 10^5 Zellen pro ml eingestellt waren. Die derart infizierten Zellen wurden zu 1 x 10^4 Zellen/Napf in die Näpfe von 96er Mikrotiterplatten pipettiert.
Die erste vertikale Reihe der Mikrotiterplatte enthielt nur Wachstumsmedium und Zellen, die nicht infiziert, aber ansonsten genauso wie oben beschrieben, behandelt worden waren (Zellkontrolle). Die zweite vertikale Reihe der Mikrotiterplatte erhielt nur HIV-infizierte Zellen (Viruskontrolle) in Wachstumsmedium. Die übrigen Näpfe enthielten die erfindungsgemäßen Verbindungen in unterschiedlichen Konzentrationen, ausgehend von den Näpfen der 3. vertikalen Reihe der Mikrotiterplatte, von der die Prüfsubstanzen in 2er Schritten 2^10fach verdünnt wurden.
Die Testansätze wurden so lange bei 37°C inkubiert, bis in der unbehandelten Viruskontrolle die für das HIV typische Syncytienbildung auftrat (zwischen Tag 3 und 6 nach Infektion), die dann mikroskopisch ausgewertet wurde. In der unbehandelten Viruskontrolle resultierten unter diesen Testbedingungen etwa 20 Syncytien, während die unbehandelte Zellkontrolle keine Syncytien aufwies.
Die IC50-Werte wurden als die Konzentration der behandelten und infizierten Zellen ermittelt, bei der 50% (ca. 10 Syncytien) der virusinduzierten Syncytien durch die Behandlung mit der erfindungsgemäßen Verbindung unterdrückt waren. […]

[1] = purified HIV protease, synthetic peptide imitating a Gag precursor cleavage site
[2] = purified HIV protease, synthetic peptide imitating a Gag precursor cleavage site, concentration giving 50% inhibition of protease activity, read-out: HIV-1-Protease-Inhibition IC50

In the case of `NC(=O)C[C@H](NC(=O)OC1CCOC1)C(=O)N[C@@H](Cc1ccccc1)[C@H](O)CN1[C@H](C(F)(F)F)C[C@@H]2CCC[C@@H]21` (stereo partly drawn) [Beispiel 1, (2S,3S)-3-(Tetrahydrofuran-3-yl-oxycarbonyl-L-asparaginyl)amino-1-[(S,S,S)-3-trifluormethyl-2-azabicyclo[3.3.0]octan-2-yl}-2-hydroxy-4-phenylbutan], the IC50 (HIV-1-Protease) is reported as 30 nM, the “HIV-1-Protease-Inhibition IC95” value (HIV-1-Protease; [1]) is reported as 3,8 x 10^-7 Mol/l and the “PBL IC95” value (HIV) is reported as 3,5 x 10^-6 Mol/l. For the same compound, the IC50 (HIV) was 2200 nM.
With `NC(=O)C[C@H](NC(=O)O[C@H]1CCOC1)C(=O)N[C@@H](Cc1ccccc1)[C@H](O)CN1[C@H](C(F)(F)F)C[C@@H]2CCC[C@@H]21` [Beispiel 2] the “HIV-1-Protease-Inhibition IC95” value (HIV-1-Protease; [1]) was 3,6 x 10^-9 Mol/l, the IC50 (HIV-1-Protease; [2]) was 0.27 nM and the “PBL IC95” value (HIV) was 3,5 x 10^-6 Mol/l. For the same compound, the IC50 (HIV) was 2000 nM.
For `NC(=O)C[C@H](NC(=O)OC1CCS(=O)(=O)C1)C(=O)N[C@@H](Cc1ccccc1)[C@H](O)CN1[C@H](C(F)(F)F)C[C@@H]2CCC[C@@H]21` (stereo partly shown) [Beispiel 3], the IC50 (HIV-1-Protease; [2]) was 9.5 nM, the “PBL IC95” value (HIV) was 1,9 x 10^-6 Mol/l and the IC50 (HIV) was 1200 nM.
In the case of `NC(=O)C[C@H](NC(=O)OC1C=CS(=O)(=O)C1)C(=O)N[C@@H](Cc1ccccc1)[C@H](O)CN1[C@H](C(F)(F)F)C[C@@H]2CCC[C@@H]21` (stereo partly shown) [Beispiel 4], the “HIV-1-Protease-Inhibition IC95” value (HIV-1-Protease; [1]) is reported as 3,9 x 10^-9 Mol/l, the IC50 (HIV-1-Protease; [2]) is reported as 2.1 nM and the IC50 (HIV) is reported as > 16000 nM.
`O=C(N[C@@H](Cc1ccccc1)[C@H](O)CN1[C@H](C(F)(F)F)C[C@@H]2CCC[C@@H]21)OC1CCOC1` (stereo partly drawn) [Beispiel 5, (2R,3S)-3-(Tetrahydrofuran-3-yl-oxycarbonyl)-amino-1-{(S,S,S)-3-trifluormethyl-2-azabicyclo[3.3.0]octan-2-yl}-2-hydroxy-4-phenylbutan] was tested, and the IC50 (HIV-1-Protease) was 4.1 nM, the “HIV-1-Protease-Inhibition IC95” value (HIV-1-Protease; [1]) was 4,7 x 10^-8 Mol/l and the “PBL IC95” value (HIV) was 2,2 x 10^-5 Mol/l. The IC50 (HIV) was 14000 nM.
`O=C(N[C@@H](Cc1ccccc1)[C@H](O)CN1[C@H](C(F)(F)F)C[C@@H]2CCC[C@@H]21)O[C@H]1CCOC1` [Beispiel 6] was tested, and the “HIV-1-Protease-Inhibition IC95” value (HIV-1-Protease; [1]) was 5,0 x 10^-8 Mol/l, the IC50 (HIV-1-Protease; [2]) was 25 nM and the “PBL IC95” value (HIV) was 1,3 x 10^-5 Mol/l. The IC50 (HIV) was 2800 nM.
In the case of `O=C(N[C@@H](Cc1ccccc1)[C@H](O)CN1[C@H](C(F)(F)F)C[C@@H]2CCC[C@@H]21)OC1CCS(=O)(=O)C1` (stereo partly shown) [Beispiel 7], the IC50 (HIV-1-Protease; [2]) is reported as 25 nM and the IC50 (HIV) is reported as 6200 nM.
With `O=C(N[C@@H](Cc1ccccc1)[C@H](O)CN1[C@H](C(F)(F)F)C[C@@H]2CCC[C@@H]21)OC1C=CS(=O)(=O)C1` (stereo partly shown) [Beispiel 8] the “HIV-1-Protease-Inhibition IC95” value (HIV-1-Protease; [1]) was 4,1 x 10^-8 Mol/l, the IC50 (HIV-1-Protease; [2]) was 3.2 nM and the “PBL IC95” value (HIV) was >2e-05 mol/L. For the same compound, the IC50 (HIV) was 17000 nM.
